As a reminder, the IC50 is the midpoint of a concentration-inhibition curve.

This assay concerns the target Dual specificity tyrosine-phosphorylation-regulated kinase 1A (Homo sapiens, UniProt Q13627). Nature of the assay: Inhibition of human recombinant DYRK1A.

As for `COC(=O)[C@@]1(Cc2ccc(O)c(CC=C(C)C)c2)OC(=O)C(=O)C1c1ccc(O)cc1` (stereo partly drawn) [(S)-methyl 4-hydroxy-2-(4-hydroxy-3-(3-methylbut-2-enyl)benzyl)-3-(4-hydroxyphenyl)-5-oxo-2,5-dihydrofuran-2-carboxylate], the IC50 is > 100 µM.
In the case of `COC(=O)[C@]1(Cc2ccc(OS(=O)(=O)O)c(CC=C(C)C)c2)OC(=O)C(=O)C1c1ccc(O)cc1` (some centres not stated) [butyrolactone I 4''-sulfate] it was > 100 µM.

The values above are taken from BindingDB's records for doi:10.1021/np070341r (Leibniz-Institute For Natural Product Research and …, 2008).
